Laboratory results as given in ChEMBL document CHEMBL3396997, “Piperidine-3,4-diol and piperidine-3-ol derivatives of pyrrolo[2,1-f][1,2,4]triazine as inhibitors of anaplastic lymphoma kinase” (Bioorg Med Chem Lett, 2015).
≈ marks a conversion by molar mass, not a printed value. Calls of active or inactive are those of the source. The calls are words filed in the database; no cut-off is given here.

Tests used:
SUP-M2 [1] = test: Antitumor activity against human SUP-M2 cells xenografted in SCID mouse assessed as induction of tumor regression at 30 mg/kg, po BID for 10 days; assay type: functional, organism-based; parameters: dose 30 mg/kg
SUP-M2 [2] = test: Antitumor activity against human SUP-M2 cells xenografted in SCID mouse assessed as induction of tumor regression at 55 mg/kg, po BID for 10 days; assay type: functional, organism-based; parameters: dose 55 mg/kg
[3] = Half life in mouse liver microsomes; assay type: ADME
[4] = Half life in rat liver microsomes; assay type: ADME
[5] = Half life in monkey liver microsomes; assay type: ADME, Macaca mulatta; settings: rhesus monkey
[6] = Half life in human liver microsomes; assay type: ADME
[7] = Solubility in water at neutral pH; assay type: physicochemical
[8] = target: Voltage-gated inwardly rectifying potassium channel KCNH2 (Homo sapiens, UniProt Q12809); test: Inhibition of human ERG by patch clamp cellular assay
Chain of Voltage-gated inwardly rectifying potassium channel KCNH2 (Q12809 whole entry): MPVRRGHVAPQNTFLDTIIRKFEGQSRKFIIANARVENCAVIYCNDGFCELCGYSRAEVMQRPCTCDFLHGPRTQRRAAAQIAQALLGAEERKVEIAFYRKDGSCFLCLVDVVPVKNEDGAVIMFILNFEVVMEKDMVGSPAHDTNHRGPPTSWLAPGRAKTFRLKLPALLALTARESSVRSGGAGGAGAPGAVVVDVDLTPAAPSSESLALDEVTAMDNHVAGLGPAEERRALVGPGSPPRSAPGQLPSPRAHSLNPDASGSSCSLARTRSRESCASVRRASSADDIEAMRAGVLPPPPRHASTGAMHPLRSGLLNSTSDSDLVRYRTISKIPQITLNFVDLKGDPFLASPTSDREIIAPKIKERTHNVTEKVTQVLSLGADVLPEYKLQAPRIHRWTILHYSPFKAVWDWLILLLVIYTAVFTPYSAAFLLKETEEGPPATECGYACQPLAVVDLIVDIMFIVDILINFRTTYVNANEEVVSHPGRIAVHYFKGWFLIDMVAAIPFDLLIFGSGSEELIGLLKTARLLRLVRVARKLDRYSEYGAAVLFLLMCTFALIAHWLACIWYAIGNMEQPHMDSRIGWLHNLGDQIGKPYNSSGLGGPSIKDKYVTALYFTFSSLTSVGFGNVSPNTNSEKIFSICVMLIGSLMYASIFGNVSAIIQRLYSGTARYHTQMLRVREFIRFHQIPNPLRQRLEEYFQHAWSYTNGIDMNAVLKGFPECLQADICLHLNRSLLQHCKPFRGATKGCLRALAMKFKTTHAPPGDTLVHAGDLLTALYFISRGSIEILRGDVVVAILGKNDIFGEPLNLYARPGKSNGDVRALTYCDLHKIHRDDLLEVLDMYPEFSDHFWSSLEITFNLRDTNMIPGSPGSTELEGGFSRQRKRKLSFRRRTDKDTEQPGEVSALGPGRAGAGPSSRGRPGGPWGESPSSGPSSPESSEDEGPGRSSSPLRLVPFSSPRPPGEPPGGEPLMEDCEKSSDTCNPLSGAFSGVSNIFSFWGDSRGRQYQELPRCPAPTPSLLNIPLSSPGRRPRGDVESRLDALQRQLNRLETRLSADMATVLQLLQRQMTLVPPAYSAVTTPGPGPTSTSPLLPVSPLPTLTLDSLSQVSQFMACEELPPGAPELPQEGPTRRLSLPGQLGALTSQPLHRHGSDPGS

Mus musculus [9] = test: Toxicity in human SUP-M2 cells xenografted SCID mouse assessed as body weight loss at 30 mg/kg, po BID for 10 days; assay type: organism-based; parameters: dose 30 mg/kg, route oral; settings: in vivo, 240 h
Mus musculus [10] = test: Toxicity in human SUP-M2 cells xenografted SCID mouse assessed as body weight loss at 55 mg/kg, po BID for 10 days; assay type: organism-based; parameters: dose 55 mg/kg, route oral; settings: in vivo, 240 h
Mus musculus [11] = test: Toxicity in human SUP-M2 cells xenografted SCID mouse assessed as incidences of overt toxicity at 30 mg/kg, po BID for 10 days; assay type: organism-based; parameters: dose 30 mg/kg, route oral; settings: in vivo, 240 h
Mus musculus [12] = test: Toxicity in human SUP-M2 cells xenografted SCID mouse assessed as incidences of overt toxicity at 55 mg/kg, po BID for 10 days; assay type: organism-based; parameters: dose 55 mg/kg, route oral; settings: in vivo, 240 h
Cytochrome P450 2C9 = Cytochrome P450 2C9 (Homo sapiens, UniProt P11712); test: Inhibition of CYP2C9 (unknown origin); assay type: ADME
Chain of Cytochrome P450 2C9 (P11712 whole entry): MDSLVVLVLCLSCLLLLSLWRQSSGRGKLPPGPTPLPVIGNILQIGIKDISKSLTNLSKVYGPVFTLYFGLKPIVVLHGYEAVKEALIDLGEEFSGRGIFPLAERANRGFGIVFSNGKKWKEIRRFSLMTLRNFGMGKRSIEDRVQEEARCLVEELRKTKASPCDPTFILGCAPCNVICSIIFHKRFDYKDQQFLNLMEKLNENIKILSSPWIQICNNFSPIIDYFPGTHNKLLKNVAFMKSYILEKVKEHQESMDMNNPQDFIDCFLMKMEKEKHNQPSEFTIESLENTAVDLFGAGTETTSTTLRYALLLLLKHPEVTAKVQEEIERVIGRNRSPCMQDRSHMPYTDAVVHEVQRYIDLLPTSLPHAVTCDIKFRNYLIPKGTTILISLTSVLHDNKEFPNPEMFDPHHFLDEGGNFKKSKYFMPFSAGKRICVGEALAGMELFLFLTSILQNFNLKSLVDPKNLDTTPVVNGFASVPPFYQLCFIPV

Cytochrome P450 2C19 = Cytochrome P450 2C19 (Homo sapiens, UniProt P33261); test: Inhibition of CYP2C19 (unknown origin); assay type: ADME
Chain of Cytochrome P450 2C19 (P33261 whole entry): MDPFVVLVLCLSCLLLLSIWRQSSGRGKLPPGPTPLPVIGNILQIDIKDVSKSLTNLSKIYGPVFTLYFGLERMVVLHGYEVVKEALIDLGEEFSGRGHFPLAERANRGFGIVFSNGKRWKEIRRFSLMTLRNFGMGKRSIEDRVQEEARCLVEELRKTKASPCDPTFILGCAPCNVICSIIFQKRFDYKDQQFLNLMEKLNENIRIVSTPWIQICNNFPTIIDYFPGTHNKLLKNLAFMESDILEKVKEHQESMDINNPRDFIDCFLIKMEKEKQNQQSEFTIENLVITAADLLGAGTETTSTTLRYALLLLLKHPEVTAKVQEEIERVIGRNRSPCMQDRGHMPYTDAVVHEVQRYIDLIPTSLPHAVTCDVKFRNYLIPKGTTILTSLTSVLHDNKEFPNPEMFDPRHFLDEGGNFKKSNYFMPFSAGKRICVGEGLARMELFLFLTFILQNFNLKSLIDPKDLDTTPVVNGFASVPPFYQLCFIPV

Cytochrome P450 3A4 = Cytochrome P450 3A4 (Homo sapiens, UniProt P08684); test: Inhibition of CYP3A4 (unknown origin); assay type: ADME
Chain of Cytochrome P450 3A4 (P08684 whole entry): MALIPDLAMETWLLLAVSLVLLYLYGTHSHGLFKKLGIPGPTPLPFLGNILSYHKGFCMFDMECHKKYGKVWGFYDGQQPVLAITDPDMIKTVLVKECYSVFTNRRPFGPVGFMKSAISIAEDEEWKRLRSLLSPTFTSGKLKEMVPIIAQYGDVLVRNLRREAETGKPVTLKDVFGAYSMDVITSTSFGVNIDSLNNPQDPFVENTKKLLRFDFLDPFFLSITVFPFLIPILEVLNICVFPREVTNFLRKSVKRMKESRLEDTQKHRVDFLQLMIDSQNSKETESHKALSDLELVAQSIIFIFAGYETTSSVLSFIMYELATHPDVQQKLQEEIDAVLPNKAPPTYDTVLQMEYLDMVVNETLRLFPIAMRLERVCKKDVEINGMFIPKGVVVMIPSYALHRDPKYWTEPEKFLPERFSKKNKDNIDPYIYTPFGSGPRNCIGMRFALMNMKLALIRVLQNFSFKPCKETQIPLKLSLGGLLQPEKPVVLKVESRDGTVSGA

Cytochrome P450 1A2 = target: T1, Cytochrome P450 1A2 (Homo sapiens, UniProt P05177); test: Inhibition of CYP1A2 (unknown origin); assay type: ADME
T1 sequence (P05177 whole entry): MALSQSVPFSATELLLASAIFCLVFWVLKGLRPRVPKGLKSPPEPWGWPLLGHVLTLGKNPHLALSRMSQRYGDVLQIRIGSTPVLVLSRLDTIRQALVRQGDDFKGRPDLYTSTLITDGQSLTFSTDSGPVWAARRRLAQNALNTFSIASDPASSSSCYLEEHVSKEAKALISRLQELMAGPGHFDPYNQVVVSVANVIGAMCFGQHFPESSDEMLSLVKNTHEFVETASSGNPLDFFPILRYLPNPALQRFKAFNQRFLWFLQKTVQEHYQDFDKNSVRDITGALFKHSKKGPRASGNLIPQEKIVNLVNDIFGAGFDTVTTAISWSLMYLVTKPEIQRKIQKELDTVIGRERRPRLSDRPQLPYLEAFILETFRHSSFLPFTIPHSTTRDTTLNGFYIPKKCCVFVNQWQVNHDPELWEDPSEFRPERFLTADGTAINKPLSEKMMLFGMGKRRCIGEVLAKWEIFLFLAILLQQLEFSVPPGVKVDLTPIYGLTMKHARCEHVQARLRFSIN

Cytochrome P450 2D6 = Cytochrome P450 2D6 (Homo sapiens, UniProt P10635); test: Inhibition of CYP2D6A (unknown origin); assay type: ADME
Chain of Cytochrome P450 2D6 (P10635 whole entry): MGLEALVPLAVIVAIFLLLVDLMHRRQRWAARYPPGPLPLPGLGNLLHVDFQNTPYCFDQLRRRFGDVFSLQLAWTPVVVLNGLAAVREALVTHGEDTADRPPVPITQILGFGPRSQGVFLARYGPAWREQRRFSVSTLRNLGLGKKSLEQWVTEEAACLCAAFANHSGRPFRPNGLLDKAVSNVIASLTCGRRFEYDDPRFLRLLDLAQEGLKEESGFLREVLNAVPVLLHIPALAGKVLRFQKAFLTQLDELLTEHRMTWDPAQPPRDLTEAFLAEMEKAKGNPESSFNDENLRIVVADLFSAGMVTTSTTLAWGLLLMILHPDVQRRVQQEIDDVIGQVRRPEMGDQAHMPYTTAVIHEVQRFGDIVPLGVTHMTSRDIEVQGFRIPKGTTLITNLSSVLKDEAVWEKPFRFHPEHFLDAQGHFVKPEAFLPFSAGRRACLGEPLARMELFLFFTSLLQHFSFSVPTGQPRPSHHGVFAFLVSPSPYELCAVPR

Plasma [13] = test: (§1) Plasma concentration in human SUP-M2 cells xenografted SCID mouse at 30 mg/kg, po measured after 2 hrs; assay type: ADME, organism-based; parameters: dose 30 mg/kg, route oral; settings: in vivo, 2 h
Plasma [14] = test: (§2) Plasma concentration in human SUP-M2 cells xenografted SCID mouse at 30 mg/kg, po measured after 6 hrs; assay type: ADME, organism-based; parameters: dose 30 mg/kg, route oral; settings: in vivo, 6 h
Brain [15] = test: (§3) Drug concentration in brain of human SUP-M2 cells xenografted SCID mouse at 30 mg/kg, po measured after 2 hrs; assay type: ADME, organism-based; parameters: dose 30 mg/kg, route oral; settings: in vivo, 2 h
Brain [16] = test: (§4) Drug concentration in brain of human SUP-M2 cells xenografted SCID mouse at 30 mg/kg, po measured after 6 hrs; assay type: ADME, organism-based; parameters: dose 30 mg/kg, route oral; settings: in vivo, 6 h
[17] = Plasma concentration in human SUP-M2 cells xenografted SCID mouse at 30 mg/kg, po measured after 16 hrs; assay type: ADME, organism-based; parameters: dose 30 mg/kg, route oral
[18] = Drug concentration in brain of human SUP-M2 cells xenografted SCID mouse at 30 mg/kg, po measured after 16 hrs; assay type: ADME, organism-based; parameters: dose 30 mg/kg, route oral; settings: read-out: Drug uptake
[19] = Half life in Sprague-Dawley rat at 1 mg/kg, iv; assay type: ADME, organism-based; parameters: dose 1 mg/kg, route intravenous; settings: in vivo
[20] = AUC (0 to infinity) in Sprague-Dawley rat at 1 mg/kg, iv; assay type: ADME, organism-based; parameters: time infinity, dose 1 mg/kg, route intravenous; settings: plasma
[21] = Volume of distribution in Sprague-Dawley rat at 1 mg/kg, iv; assay type: ADME, organism-based; parameters: dose 1 mg/kg, route intravenous; settings: in vivo
[22] = Clearance in Sprague-Dawley rat at 1 mg/kg, iv; assay type: ADME, organism-based; parameters: dose 1 mg/kg, route intravenous; settings: in vivo
[23] = Cmax in Sprague-Dawley rat at 5 mg/kg, po; assay type: ADME, organism-based; parameters: dose 5 mg/kg, route oral; settings: in vivo
[24] = Tmax in Sprague-Dawley rat at 5 mg/kg, po; assay type: ADME, organism-based; parameters: dose 5 mg/kg, route oral; settings: in vivo
[25] = AUC (0 to infinity) in Sprague-Dawley rat at 5 mg/kg, po; assay type: ADME, organism-based; parameters: time infinity, dose 5 mg/kg, route oral; settings: plasma
[26] = Oral bioavailability in Sprague-Dawley rat at 5 mg/kg; assay type: ADME, organism-based; settings: in vivo
[27] = as §1; assay type: ADME, organism-based; parameters: dose 30 mg/kg, route oral; settings: SCID, plasma
[28] = as §2; assay type: ADME, organism-based; parameters: dose 30 mg/kg, route oral; settings: SCID, plasma
[29] = Plasma concentration in human SUP-M2 cells xenografted SCID mouse at 30 mg/kg, po measured after 12 hrs; assay type: ADME, organism-based; parameters: dose 30 mg/kg, route oral
[30] = Plasma concentration in human SUP-M2 cells xenografted SCID mouse at 30 mg/kg, po measured after 24 hrs; assay type: ADME, organism-based; parameters: dose 30 mg/kg, route oral
[31] = as §3; assay type: ADME, organism-based; parameters: dose 30 mg/kg, route oral; settings: SCID, brain, read-out: Drug uptake
[32] = as §4; assay type: ADME, organism-based; parameters: dose 30 mg/kg, route oral; settings: SCID, brain, read-out: Drug uptake
[33] = Drug concentration in brain of human SUP-M2 cells xenografted SCID mouse at 30 mg/kg, po measured after 12 hrs; assay type: ADME, organism-based; parameters: dose 30 mg/kg, route oral; settings: read-out: Drug uptake
[34] = Drug concentration in brain of human SUP-M2 cells xenografted SCID mouse at 30 mg/kg, po measured after 24 hrs; assay type: ADME, organism-based; parameters: dose 30 mg/kg, route oral; settings: read-out: Drug uptake

COc1cc([C@H]2CCN(CCO)C[C@@H]2O)ccc1Nc1ncc2ccc(-c3ccccc3OC)n2n1 [listing 1 of 2 here]
inhibition (SUP-M2 [1]): Active
inhibition (SUP-M2 [2]): Active

COc1cc([C@@]2(O)CCN(CC(N)=O)C[C@@H]2O)ccc1Nc1ncc2ccc(-c3ccccc3N(C)S(C)(=O)=O)n2n1
half-life [3]: > 40 min
half-life [4]: 26 min
half-life [5]: 8 min
half-life [6]: 32 min
solubility [7]: ≥ 33 µg/mL

COc1cc([C@@]2(O)CCN(C)C[C@@H]2O)ccc1Nc1ncc2ccc(-c3ccccc3OC)n2n1 (relative stereo)
IC50 [8]: Active
half-life [3]: > 40 min
half-life [4]: > 40 min
half-life [5]: 32 min
half-life [6]: > 40 min

COc1cc([C@H]2CCN(CCO)C[C@@H]2O)ccc1Nc1ncc2ccc(-c3ccccc3OC)n2n1 [listing 2 of 2 here]
IC50 [8]: 6.8 µM
Activity (Mus musculus [9]): Non-toxic
Activity (Mus musculus [10]): Non-toxic
Activity (Mus musculus [11]): Non-toxic
Activity (Mus musculus [12]): Non-toxic
IC50 (Cytochrome P450 2C9): 19 µM
IC50 (Cytochrome P450 2C19): 17 µM
IC50 (Cytochrome P450 3A4): 12 µM
IC50 (Cytochrome P450 1A2): > 30 µM
IC50 (Cytochrome P450 2D6): > 30 µM
Cp (Plasma [13]): 407 ng/mL
Cp (Plasma [14]): 573 ng/mL
Drug uptake (Brain [15]): 1217 ng/g
Drug uptake (Brain [16]): 3150 ng/g
concentration at 16 h [17]: 567 ng/mL
concentration at 16 h [18]: 16100 ng/g

COc1cc([C@@H]2CCN(CC(N)=O)C[C@@H]2O)ccc1Nc1ncc2ccc(-c3ccccc3OC)n2n1 (relative stereo)
half-life [3]: > 40 min
half-life [4]: 34 min
half-life [5]: 7 min
half-life [6]: 19 min
solubility [7]: 2 µg/mL (≈ 3.98 µM)

COc1cc(C2CCN(C)CC2O)ccc1Nc1ncc2ccc(-c3ccccc3OC)n2n1 (racemic)
half-life [3]: 18 min
half-life [4]: > 40 min
half-life [5]: 22 min
half-life [6]: > 40 min

COc1cc([C@@H]2CCN(CCO)C[C@@H]2O)ccc1Nc1ncc2ccc(-c3ccccc3OC)n2n1 (racemic)
half-life [3]: 37 min
half-life [4]: > 40 min
half-life [5]: > 40 min
half-life [6]: > 40 min
solubility [7]: 50 µg/mL (≈ 102 µM)
half-life [19]: 150 min
AUC(0-inf) [20]: 371 ng·h/mL
Vd [21]: 9.9 L/kg
clearance [22]: 46 mL/min/kg
Cmax [23]: 85 ng/mL
Tmax [24]: 6 h
AUC(0-inf) [25]: 479 ng·h/mL
bioavailability [26]: 26%
concentration at 2 h [27]: 389 ng/mL
concentration at 6 h [28]: 201 ng/mL
concentration at 12 h [29]: 164 ng/mL
concentration at 24 h [30]: 19 ng/mL
concentration at 2 h [31]: 1650 ng/g
concentration at 6 h [32]: 1770 ng/g
concentration at 12 h [33]: 2520 ng/g
concentration at 24 h [34]: 1580 ng/g

COc1cc([C@@]2(O)CCN(CC(N)=O)C[C@@H]2O)ccc1Nc1ncc2ccc(-c3ccccc3OC)n2n1
half-life [3]: > 40 min
half-life [4]: 31 min
half-life [5]: 17 min
half-life [6]: > 40 min
solubility [7]: ≥ 33 µg/mL

COc1cc(C2CCN(CCO)CC2O)ccc1Nc1ncc2ccc(-c3ccccc3OC)n2n1 (single isomer, unassigned; enantiomer 1)
concentration at 2 h [27]: 355 ng/mL
concentration at 6 h [28]: 148 ng/mL
concentration at 2 h [31]: 1030 ng/g
concentration at 6 h [32]: 1160 ng/g
concentration at 16 h [17]: 51 ng/mL
concentration at 16 h [18]: 2210 ng/g

COc1cc([C@H]2CCN(CCO)C[C@@H]2O)ccc1Nc1ncc2ccc(-c3ccccc3OC)n2n1 (relative stereo)
half-life [3]: > 40 min
half-life [4]: > 40 min
half-life [5]: 30 min
half-life [6]: > 40 min
half-life [19]: 192 min
AUC(0-inf) [20]: 459 ng·h/mL
Vd [21]: 10.3 L/kg
clearance [22]: 39 mL/min/kg
Cmax [23]: 97 ng/mL
Tmax [24]: 4 h
AUC(0-inf) [25]: 708 ng·h/mL
bioavailability [26]: 31%
concentration at 2 h [27]: 523 ng/mL
concentration at 6 h [28]: 361 ng/mL
concentration at 12 h [29]: 213 ng/mL
concentration at 24 h [30]: 55 ng/mL
concentration at 2 h [31]: 1960 ng/g
concentration at 6 h [32]: 3930 ng/g
concentration at 12 h [33]: 2670 ng/g
concentration at 24 h [34]: 1280 ng/g

COc1cc([C@@]2(O)CCNC[C@@H]2O)ccc1Nc1ncc2ccc(-c3ccccc3OC)n2n1
half-life [3]: > 40 min
half-life [4]: > 40 min
half-life [5]: > 40 min
half-life [6]: > 40 min

COc1cc([C@@]2(O)CCNC[C@@H]2O)ccc1Nc1ncc2ccc(-c3ccccc3N(C)S(C)(=O)=O)n2n1
half-life [3]: > 40 min
half-life [4]: > 40 min
half-life [5]: 25 min
half-life [6]: > 40 min

COc1cc([C@@H]2CCNC[C@@H]2O)ccc1Nc1ncc2ccc(-c3ccccc3OC)n2n1 (relative stereo)
half-life [3]: > 40 min
half-life [4]: > 40 min
half-life [5]: > 40 min
half-life [6]: > 40 min
